The target of one experiment is T1, human TLR7 (Homo sapiens, UniProt Q9NYK1).
T1 construct: expressed in transfected cells; host or cells: HEK293
T1 sequence (Q9NYK1 27-1049): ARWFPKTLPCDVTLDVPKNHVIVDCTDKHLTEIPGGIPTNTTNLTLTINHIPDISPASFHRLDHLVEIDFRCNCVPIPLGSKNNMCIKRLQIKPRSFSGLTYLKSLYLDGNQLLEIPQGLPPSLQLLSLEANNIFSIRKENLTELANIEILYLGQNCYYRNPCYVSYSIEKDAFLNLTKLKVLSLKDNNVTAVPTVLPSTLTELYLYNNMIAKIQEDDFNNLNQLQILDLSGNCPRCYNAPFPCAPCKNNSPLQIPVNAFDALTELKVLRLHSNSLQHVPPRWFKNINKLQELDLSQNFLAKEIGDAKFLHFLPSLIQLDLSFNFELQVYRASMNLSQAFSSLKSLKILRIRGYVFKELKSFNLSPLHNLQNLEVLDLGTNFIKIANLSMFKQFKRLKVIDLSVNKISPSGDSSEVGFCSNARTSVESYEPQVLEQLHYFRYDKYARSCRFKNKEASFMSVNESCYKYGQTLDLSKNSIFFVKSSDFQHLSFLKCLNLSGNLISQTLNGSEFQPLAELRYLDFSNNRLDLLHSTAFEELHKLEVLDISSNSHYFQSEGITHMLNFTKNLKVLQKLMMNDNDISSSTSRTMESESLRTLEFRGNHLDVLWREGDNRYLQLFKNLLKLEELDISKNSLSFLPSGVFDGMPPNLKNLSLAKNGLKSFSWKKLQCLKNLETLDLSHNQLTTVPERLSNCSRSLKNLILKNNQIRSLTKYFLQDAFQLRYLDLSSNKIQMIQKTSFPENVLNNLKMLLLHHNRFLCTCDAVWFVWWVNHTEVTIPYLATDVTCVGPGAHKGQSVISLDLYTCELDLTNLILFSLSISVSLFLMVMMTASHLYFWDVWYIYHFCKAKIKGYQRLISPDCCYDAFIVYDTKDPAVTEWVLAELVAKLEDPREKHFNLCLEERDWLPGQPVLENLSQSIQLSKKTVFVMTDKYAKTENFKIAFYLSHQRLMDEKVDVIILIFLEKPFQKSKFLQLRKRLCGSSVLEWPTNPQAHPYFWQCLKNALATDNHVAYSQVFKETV
The experiment in a line: Human TLR7 cellular reporter assay (HEK293, NFkB-luc). It is filed as cell-based. The note with it: HEK293 cells transiently transfected with TLR7 and NFkB-luc; 6 hours incubation; lowest effective concentration. As to the method:
(§1) Assessment of human TLR7 and human TLR8 activity. The ability of compounds to activate human TLR7 and/or TLR8 was assessed in a cellular reporter assay using HEK293 cells transiently transfected with a TLR7 or TLR8 expression vector and NFkB-luc reporter construct.
(§2) Briefly, HEK293 cells were grown in culture medium (DMEM supplemented with 10% FCS and 2 mM glutamine). For transfection of cells in 15 cm dishes, cells were detached with Trypsin-EDTA, transfected with a mix of CMV-TLR7 or TLR8 plasmid (1700 ng), NFkB-luc plasmid (850 ng) and a transfection reagent and incubated for 48 h at 37° C. in a humidified 5% CO2 atmosphere. Transfected cells were then washed in PBS, detached with Trypsin-EDTA and resuspended in medium to a density of 1.25×10^5 cells/mL. Forty microliters of cells were then dispensed into each well in 384-well plates, where 200 nL of compound in 100% DMSO was already present. Following 6 hours incubation at 37° C., 5% CO2, the luciferase activity was determined by adding 15 μL of Steady Lite Plus substrate (Perkin Elmer) to each well and readout performed on a ViewLux ultraHTS microplate imager (Perkin Elmer). Dose response curves were generated from measurements performed in quadruplicates. Lowest effective concentrations (LEC) values, defined as the concentration that induces an effect which is at least two fold above the standard deviation of the assay, were determined for each compound.
A general note: A reporter such as luciferase makes a cellular process visible.

Another experiment has as its target T2, human TLR8 (Homo sapiens, UniProt Q9NR97).
T2 construct: expressed in transfected cells; host or cells: HEK293
T2 sequence (Q9NR97 27-1041): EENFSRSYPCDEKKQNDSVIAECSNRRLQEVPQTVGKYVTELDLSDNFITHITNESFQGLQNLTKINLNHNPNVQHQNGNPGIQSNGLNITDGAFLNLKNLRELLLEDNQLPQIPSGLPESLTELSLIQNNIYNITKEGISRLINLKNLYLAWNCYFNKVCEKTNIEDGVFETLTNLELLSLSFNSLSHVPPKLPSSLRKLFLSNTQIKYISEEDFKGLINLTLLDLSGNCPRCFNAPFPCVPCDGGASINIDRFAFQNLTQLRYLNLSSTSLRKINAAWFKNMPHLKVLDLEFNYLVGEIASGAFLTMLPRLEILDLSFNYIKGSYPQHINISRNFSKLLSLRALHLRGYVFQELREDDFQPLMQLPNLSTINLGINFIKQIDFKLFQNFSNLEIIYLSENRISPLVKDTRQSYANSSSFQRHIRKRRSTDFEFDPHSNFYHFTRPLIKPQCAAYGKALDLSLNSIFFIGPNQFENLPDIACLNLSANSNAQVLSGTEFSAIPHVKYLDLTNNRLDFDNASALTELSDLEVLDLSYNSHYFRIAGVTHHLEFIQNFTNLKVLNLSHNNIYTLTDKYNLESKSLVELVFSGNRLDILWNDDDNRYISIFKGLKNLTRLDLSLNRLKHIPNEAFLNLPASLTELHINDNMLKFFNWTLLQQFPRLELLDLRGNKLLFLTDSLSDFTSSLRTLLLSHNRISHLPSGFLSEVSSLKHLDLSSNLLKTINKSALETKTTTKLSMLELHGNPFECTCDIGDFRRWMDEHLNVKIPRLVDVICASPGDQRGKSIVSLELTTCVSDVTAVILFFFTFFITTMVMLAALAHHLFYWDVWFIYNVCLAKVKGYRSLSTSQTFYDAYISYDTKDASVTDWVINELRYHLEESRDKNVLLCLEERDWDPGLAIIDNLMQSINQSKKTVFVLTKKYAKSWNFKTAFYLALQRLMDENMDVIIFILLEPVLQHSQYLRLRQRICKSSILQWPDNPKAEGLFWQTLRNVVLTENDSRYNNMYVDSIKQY
The experiment can be described thus: Human TLR8 cellular reporter assay (HEK293, NFkB-luc). It is filed as cell-based. The note with it: HEK293 cells transiently transfected with TLR8 and NFkB-luc; 6 hours incubation; lowest effective concentration. As to the method:
as §1, §2

From patent US11053256B2, “Dihydropyranopyrimidines for the treatment of viral infections” (Janssen Sciences Ireland Unlimited Company, priority 2016, dated 2021) come the findings set out here.

On to `CCCCNc1nc(N)nc2c1CCOC2` [Compound 7, N^4-butyl-5,8-dihydro-6H-pyrano[3,4-d]pyrimidine-2,4-diamine], for which, on human TLR7, the “Human TLR 7 (LEC)” value was found to be 4.7 µM. For the same compound, the “Human TLR 8 (LEC)” value at human TLR8 turned out to be 0.5 µM.
With `CCCC[C@H](CO)Nc1nc(N)nc2c1COCC2` [Compound 4, (2R)-2-[(2-amino-7,8-dihydro-5H-pyrano[4,3-d]pyrimidin-4-yl)amino]hexan-1-ol], the “Human TLR 7 (LEC)” value on human TLR7 was more than 100 µM. Also, the “Human TLR 8 (LEC)” value at human TLR8 is 1.3 µM.
For `CCCCNc1nc(N)nc2c1OCCC2` [Compound 13, N^4-butyl-7,8-dihydro-6H-pyrano[3,2-d]pyrimidine-2,4-diamine], on human TLR7, the “Human TLR 7 (LEC)” value came out at 0.8 µM. The “Human TLR 8 (LEC)” value on human TLR8 was 0.1 µM.
For the compound `CCCC[C@H](CO)Nc1nc(N)nc2c1CCOC2` [Compound 8, (2R)-2-[(2-amino-5,8-dihydro-6H-pyrano[3,4-d]pyrimidin-4-yl)amino]hexan-1-ol], the “Human TLR 7 (LEC)” value on human TLR7 was more than 100 µM. Besides, the “Human TLR 8 (LEC)” value on human TLR8 is 1.4 µM.
In the case of `CCCCNc1nc(N)nc2c1COCC2` [Compound 3, N^4-butyl-7,8-dihydro-5H-pyrano[4,3-d]pyrimidine-2,4-diamine], the “Human TLR 7 (LEC)” value at human TLR7 was determined as 14.8 µM. In addition, the “Human TLR 8 (LEC)” value at human TLR8 was found to be 1.0 µM.
As for `CCCC[C@H](CO)Nc1nc(N)nc2c1OCCC2` [Compound 14, (2R)-2-[(2-amino-7,8-dihydro-6H-pyrano[3,2-d]pyrimidin-4-yl)amino]hexan-1-ol], at human TLR7, the “Human TLR 7 (LEC)” value was 32.5 µM. The “Human TLR 8 (LEC)” value at human TLR8 is 0.1 µM.
